Laboratory results reported in patent EP0753308A2, “Use of lactoferrin for therapy of acute or recurrent infectious diseases by streptococcus pyogenes or other intracellular gram positive pathogen bacteria” (priority 1995, dated 1997).

Columns and labels:
S. pyogenes 95/1 = assay: Invasion assay in HeLa cell monolayers (gentamicin protection, CFU of viable intracellular bacteria); type: cell-based, Streptococcus pyogenes; details: control 5 x 10^5; for Internalized bacteria (CFU/ml): absence of lactoferrin
Experimental: (§1) Streptococcus pyogenes strain 95/1 was cultured in Todd-Hewitt broth (Difco lab.). Blood agar was used for counting coloning forming units (C.F.U.). Staphylococcus aureus strain 94/3 was cultured in Brain Hearth Infusion (BHI). Mannitol Salt Agar was used for C.F.U. counts. HeLa S3 human epitelial cells (derived from epithelioid carcinoma of human cervix) were grown as monolayers at 37°C in Eagle's MEM containing 1.2 g/l of NaCo3, 2 mM glutamine, 100 U/ml penicillin, 0.1 mg/ml streptomycin and 10% heat inactivated foetal calf serum in 5% CO2 on 24-well tissue culture clusters (costar) by loading 1 ml of a solution of 1.5x10^5 cells/ml.
(§2) Semiconfluent monolayers of HeLa cells were infected with a bacterial suspension (at a multiplicity of infection of 100 exponentially grown bacteria per cell) deriving from a bacterial subculture after an incubation at 37°C for 120 min in the presence and absence of lactoferrin added at no cytotoxic nor antibacterial concentrations. After the bacterial infection (2 h at 37°C ), the monolayer was five-fold carefully washed with fosfate buffered saline (PBS) and then fresh medium (MEM, Seromed) containing 200 ug/ml of gentamicin was added. This antibiotic is well known for its impossibility to penetrate into the eukaryotic cells and to exert its bactericidal effect only towards the extracellular bacteria (free or adhered to the cells). Alter 2 h incubation period at 37°C in gentamicin, the infected cells were whashed three times with PBS and lysed by the addition of cold 0.1% Triton-X 100.
The cellular lysate was diluited with PBS and plated on selective agar medium in order to determine viable intracellular bacteria.

S. aureus = assay: as above; type: cell-based, Staphylococcus aureus; details: proteins 1 mg/ml; erythromycin 0.02 mg/ml where present; control 7 x 10^5
Experimental: as §1
as §2, with “Alter 2 h incubation period at 37°C in gentamicin, the infected cells were whashed three times with PBS and lysed by the addition of cold 0.1% Triton-X 100.” left out

CC1(C)S[C@@H]2[C@H](NC(=O)[C@H](N)c3ccccc3)C(=O)N2[C@H]1C(=O)O [Ampicillin, ampicillin]
Internalized bacteria (CFU/ml) (S. pyogenes 95/1; bacteria cultured with subinhibiting antibiotic 0.1 ug/ml): 2 x 10^5 CFU/ml

CC[C@H]1OC(=O)[C@H](C)[C@@H](O[C@H]2C[C@@](C)(OC)[C@@H](O)[C@H](C)O2)[C@H](C)[C@@H](O[C@@H]2O[C@H](C)C[C@H](N(C)C)[C@H]2O)[C@](C)(O)C[C@@H](C)C(=O)[C@H](C)[C@@H](O)[C@]1(C)O [Erythromycin, erythromycin]
Internalized bacteria (CFU/ml) (S. pyogenes 95/1; bacteria cultured with subinhibiting antibiotic 20 ug/ml): 2 x 10^5 CFU/ml
Intracellular bacteria (CFU/ml S. pyogenes) (S. pyogenes 95/1; proteins 1 mg/ml, erythromycin 0.02 mg/ml where present): 2 x 10^5 CFU/ml
Intracellular bacteria (CFU/ml S. aureus) (S. aureus): 3 x 10^5 CFU/ml
